According to patent US9738660B2, “Selective inhibitors for protein kinases and pharmaceutical composition and use thereof” (National Chiao Tung University, priority 2014, dated 2017):
Like-named read-outs stand apart in the source and are kept apart here.

Key:
PIM1 = PIM1 (Homo sapiens, UniProt P11309); experiment: Kinase Profiler, residual kinase activity; assay type: biochemical; conditions: read-out: percentage of the remaining kinase activity
Summary of the method: (§1)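 Outsourced panel screen: 40 protein kinases, residual activity reported per kinase.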

SRPK1 = target: T1, SRPK1 (Homo sapiens, UniProt Q96SB4); experiment: Kinase Profiler, residual kinase activity; assay type: biochemical; conditions: read-out: percentage of the remaining kinase activity
T1 construct: purchased Research Biology Corp. (http://www.reactionbiology.com)
T1 sequence (Q96SB4 whole entry): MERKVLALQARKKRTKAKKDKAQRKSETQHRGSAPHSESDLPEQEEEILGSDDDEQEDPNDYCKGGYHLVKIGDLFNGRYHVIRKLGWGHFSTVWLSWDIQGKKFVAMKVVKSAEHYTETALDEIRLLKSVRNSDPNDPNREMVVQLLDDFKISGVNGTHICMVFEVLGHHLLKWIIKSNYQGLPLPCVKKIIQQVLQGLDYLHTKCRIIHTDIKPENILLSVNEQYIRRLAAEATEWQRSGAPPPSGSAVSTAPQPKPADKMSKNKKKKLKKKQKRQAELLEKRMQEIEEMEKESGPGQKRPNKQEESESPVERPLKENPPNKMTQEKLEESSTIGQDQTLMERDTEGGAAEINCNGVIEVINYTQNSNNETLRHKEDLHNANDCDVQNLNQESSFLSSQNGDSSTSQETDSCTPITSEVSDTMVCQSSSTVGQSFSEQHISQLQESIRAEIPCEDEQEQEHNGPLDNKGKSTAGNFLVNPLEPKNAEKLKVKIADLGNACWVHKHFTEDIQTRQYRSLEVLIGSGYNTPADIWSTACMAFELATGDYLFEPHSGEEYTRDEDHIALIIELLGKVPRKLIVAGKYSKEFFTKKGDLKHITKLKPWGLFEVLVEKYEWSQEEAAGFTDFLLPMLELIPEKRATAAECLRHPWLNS
Summary of the method: as §1

LIMK1 = LIMK1 (Homo sapiens, UniProt P53667); experiment: Kinase Profiler, residual kinase activity; assay type: biochemical; conditions: read-out: percentage of the remaining kinase activity
LIMK1, sequence (P53667 whole entry): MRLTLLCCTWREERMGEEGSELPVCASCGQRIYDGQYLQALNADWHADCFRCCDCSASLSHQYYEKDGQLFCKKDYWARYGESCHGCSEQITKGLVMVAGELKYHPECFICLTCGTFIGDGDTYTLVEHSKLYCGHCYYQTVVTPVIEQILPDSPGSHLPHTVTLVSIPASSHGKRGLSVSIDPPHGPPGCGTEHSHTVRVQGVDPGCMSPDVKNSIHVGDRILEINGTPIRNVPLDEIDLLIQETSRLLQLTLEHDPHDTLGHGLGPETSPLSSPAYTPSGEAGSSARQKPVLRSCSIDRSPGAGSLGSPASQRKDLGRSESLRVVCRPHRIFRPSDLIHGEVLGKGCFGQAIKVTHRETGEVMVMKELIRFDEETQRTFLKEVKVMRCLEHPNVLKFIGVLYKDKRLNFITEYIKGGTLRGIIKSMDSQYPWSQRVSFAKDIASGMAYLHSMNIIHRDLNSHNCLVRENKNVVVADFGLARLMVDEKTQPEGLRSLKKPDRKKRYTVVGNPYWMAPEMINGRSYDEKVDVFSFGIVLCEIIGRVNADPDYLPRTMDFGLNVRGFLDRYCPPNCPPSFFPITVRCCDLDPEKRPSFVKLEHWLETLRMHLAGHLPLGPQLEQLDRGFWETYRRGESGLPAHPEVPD
Summary of the method: as §1

MAPKAPK2 = target: T2, MAPKAPK2 (Homo sapiens, UniProt P49137); experiment: Kinase Profiler, residual kinase activity; assay type: biochemical; conditions: read-out: percentage of the remaining kinase activity
T2 construct: purchased Research Biology Corp. (http://www.reactionbiology.com)
T2 sequence (P49137 whole entry): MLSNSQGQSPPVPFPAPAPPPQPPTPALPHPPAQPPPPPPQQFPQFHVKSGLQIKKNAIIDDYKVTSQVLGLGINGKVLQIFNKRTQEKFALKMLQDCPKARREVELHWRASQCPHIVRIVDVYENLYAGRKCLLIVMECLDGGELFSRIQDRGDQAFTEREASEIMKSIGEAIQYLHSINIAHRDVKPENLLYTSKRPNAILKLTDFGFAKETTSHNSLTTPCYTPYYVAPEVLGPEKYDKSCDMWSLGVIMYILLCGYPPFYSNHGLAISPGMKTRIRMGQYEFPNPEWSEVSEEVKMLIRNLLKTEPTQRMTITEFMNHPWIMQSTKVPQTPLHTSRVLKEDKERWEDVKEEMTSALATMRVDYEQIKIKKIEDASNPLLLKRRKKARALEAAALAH

PLK1 = target: T3, PLK1 (Homo sapiens, UniProt P53350); experiment: Kinase Profiler, residual kinase activity; assay type: biochemical; conditions: read-out: percentage of the remaining kinase activity
T3 construct: purchased Research Biology Corp. (http://www.reactionbiology.com)
T3 sequence (P53350 whole entry): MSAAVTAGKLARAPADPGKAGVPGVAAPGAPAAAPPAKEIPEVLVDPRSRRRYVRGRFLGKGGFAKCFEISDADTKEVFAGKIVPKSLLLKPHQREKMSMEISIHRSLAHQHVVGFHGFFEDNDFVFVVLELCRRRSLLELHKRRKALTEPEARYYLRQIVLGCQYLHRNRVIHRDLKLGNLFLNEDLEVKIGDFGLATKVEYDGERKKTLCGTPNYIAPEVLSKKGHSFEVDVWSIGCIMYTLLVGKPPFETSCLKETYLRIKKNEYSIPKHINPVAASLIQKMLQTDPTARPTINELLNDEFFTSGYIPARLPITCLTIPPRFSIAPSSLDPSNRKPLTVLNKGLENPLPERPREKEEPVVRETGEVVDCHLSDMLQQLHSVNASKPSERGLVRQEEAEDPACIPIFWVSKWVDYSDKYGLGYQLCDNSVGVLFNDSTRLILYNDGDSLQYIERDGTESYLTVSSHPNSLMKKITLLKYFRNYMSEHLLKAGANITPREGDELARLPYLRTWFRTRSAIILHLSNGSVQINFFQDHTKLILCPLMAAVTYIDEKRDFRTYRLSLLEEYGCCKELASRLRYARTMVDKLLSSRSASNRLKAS

LCK = LCK (Homo sapiens, UniProt P06239); experiment: Kinase Profiler, residual kinase activity; assay type: biochemical; conditions: read-out: percentage of the remaining kinase activity
LCK, sequence (P06239 whole entry): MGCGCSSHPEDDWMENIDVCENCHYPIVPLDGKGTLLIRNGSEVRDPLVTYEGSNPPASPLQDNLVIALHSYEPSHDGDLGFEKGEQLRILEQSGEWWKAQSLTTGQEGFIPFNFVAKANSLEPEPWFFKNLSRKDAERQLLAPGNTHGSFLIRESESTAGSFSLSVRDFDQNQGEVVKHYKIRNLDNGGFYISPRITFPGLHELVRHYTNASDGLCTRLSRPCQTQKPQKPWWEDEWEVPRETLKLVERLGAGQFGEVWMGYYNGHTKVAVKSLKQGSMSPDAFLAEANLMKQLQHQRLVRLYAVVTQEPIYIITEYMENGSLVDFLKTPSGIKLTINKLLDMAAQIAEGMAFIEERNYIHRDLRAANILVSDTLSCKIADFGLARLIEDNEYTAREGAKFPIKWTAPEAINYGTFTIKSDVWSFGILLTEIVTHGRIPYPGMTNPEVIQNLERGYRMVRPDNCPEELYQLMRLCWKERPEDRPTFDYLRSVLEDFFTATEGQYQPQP

BTK = BTK (Homo sapiens, UniProt Q06187); experiment: Kinase Profiler, residual kinase activity; assay type: biochemical; conditions: read-out: percentage of the remaining kinase activity
BTK, sequence (Q06187 whole entry): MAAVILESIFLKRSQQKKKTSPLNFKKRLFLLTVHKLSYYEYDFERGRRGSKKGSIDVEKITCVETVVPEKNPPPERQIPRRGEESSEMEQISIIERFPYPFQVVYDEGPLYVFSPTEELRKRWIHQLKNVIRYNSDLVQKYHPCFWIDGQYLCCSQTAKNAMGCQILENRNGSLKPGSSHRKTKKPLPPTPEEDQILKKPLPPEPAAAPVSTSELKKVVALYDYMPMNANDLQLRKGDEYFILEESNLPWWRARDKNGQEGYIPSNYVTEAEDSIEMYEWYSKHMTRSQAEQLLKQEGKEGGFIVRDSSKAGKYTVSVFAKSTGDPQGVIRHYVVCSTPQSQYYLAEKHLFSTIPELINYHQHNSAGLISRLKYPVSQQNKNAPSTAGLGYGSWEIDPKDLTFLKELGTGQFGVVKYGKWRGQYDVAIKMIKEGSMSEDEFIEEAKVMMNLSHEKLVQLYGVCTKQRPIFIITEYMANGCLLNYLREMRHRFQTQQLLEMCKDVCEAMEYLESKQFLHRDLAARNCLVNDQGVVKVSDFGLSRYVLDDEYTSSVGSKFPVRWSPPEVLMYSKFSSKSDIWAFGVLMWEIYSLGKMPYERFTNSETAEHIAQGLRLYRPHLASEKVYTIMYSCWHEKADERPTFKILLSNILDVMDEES
Summary of the method: as §1

FGFR2 = target: T4, FGFR2 (Homo sapiens, UniProt P21802); experiment: Kinase Profiler, residual kinase activity; assay type: biochemical; conditions: for remaining activity at 0.5 µM: read-out: percentage of the remaining kinase activity
T4 construct: purchased Research Biology Corp. (http://www.reactionbiology.com)
T4 sequence (P21802 22-821): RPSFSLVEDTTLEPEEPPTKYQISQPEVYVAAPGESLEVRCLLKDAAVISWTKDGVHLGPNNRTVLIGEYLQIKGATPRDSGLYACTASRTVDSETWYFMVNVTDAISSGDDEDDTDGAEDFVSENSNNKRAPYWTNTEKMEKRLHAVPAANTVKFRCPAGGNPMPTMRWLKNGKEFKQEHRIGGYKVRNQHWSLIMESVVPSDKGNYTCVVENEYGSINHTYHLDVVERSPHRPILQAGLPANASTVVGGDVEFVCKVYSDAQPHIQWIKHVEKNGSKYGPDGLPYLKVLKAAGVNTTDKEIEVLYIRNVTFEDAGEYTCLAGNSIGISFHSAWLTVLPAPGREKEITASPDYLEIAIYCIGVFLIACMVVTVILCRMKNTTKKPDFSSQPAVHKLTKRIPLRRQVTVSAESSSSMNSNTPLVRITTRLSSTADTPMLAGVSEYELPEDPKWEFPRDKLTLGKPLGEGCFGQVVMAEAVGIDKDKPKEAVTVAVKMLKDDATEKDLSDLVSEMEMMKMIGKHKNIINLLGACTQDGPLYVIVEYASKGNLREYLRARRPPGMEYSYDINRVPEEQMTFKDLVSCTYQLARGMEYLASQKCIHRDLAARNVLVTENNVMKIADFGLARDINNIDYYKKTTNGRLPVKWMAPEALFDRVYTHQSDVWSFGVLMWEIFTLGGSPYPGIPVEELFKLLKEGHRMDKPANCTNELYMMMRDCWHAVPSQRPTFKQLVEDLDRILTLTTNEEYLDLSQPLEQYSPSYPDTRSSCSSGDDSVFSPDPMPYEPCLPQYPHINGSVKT
Summary of the method: as §1

CDK2 = CDK2 (Homo sapiens, UniProt P24941); experiment: Kinase Profiler, residual kinase activity; assay type: biochemical; conditions: read-out: percentage of the remaining kinase activity
[1] = system: gastric cancer cell line MKN-45; experiment: MTT cell survival test on gastric cancer cells; assay type: cell-based; conditions: Homo sapiens; MKN-45, MTT, 24 hours, serum-free media; read-out: IC50 value for inhibiting gastric cancer cell line MKN-45
Protocol: Gastric cancer cell line MKN-45 was incubated on a 96-well plate (about 1×10^4 cells/well). After the cells adhered, the 96-well plate was replaced with serum-free culture media, and different concentrations (from 40 to 0.039 μM) of drugs were added. After incubating at 37° C. for 24 hours, PBS was used for washing three times, and MTT culture media was added to react with cells. Violet crystals appeared after two hours. Then, DMSO (50 μl) was added to terminate the reaction. A light-absorbing micro-volume spectrophotometer (ELISA reader) was used, and an absorption value of 570 nm was obtained. A blank value was deducted from each of the obtained absorbance values, and then the difference was divided by the value of the control group to calculate a percentage, i.e., a cell survival rate. The experiment was repeated three times to obtain an average value and a standard deviation.

[2] = system: 40 types of protein kinases; experiment: Selectivity over the panel of 40 protein kinases; assay type: biochemical; conditions: 500 nM; inhibited = residual kinase activity less than or equal to 50%
Description: Kinase Profiler services provided by […]. (http://www.reactionbiology.com) were used to analyze the data of the 9 type-S protein kinase inhibitors against the 40 types of protein kinases.

PIM1, sequence (P11309 whole entry): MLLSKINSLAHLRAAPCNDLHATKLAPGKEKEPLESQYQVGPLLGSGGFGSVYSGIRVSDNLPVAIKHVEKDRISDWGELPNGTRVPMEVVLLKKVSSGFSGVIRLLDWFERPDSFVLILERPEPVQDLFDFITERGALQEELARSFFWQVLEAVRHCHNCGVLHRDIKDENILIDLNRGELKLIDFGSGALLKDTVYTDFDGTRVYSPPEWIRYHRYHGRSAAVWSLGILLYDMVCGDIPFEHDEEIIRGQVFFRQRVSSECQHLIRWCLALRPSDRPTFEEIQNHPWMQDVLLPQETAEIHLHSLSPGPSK

Row | Structure (SMILES) | remaining activity at 0.5 µM (SRPK1; SRPK1, inhibitor at 500 nM) | remaining activity at 0.5 µM (MAPKAPK2; MAPKAPK2, inhibitor at 500 nM) | remaining activity at 0.5 µM (PLK1; PLK1, inhibitor at 500 nM) | remaining activity at 0.5 µM (LCK; LCK, inhibitor at 500 nM) | remaining activity at 0.5 µM (BTK; BTK, inhibitor at 500 nM) | remaining activity at 0.5 µM (PIM1; PIM1, inhibitor at 500 nM) | remaining activity at 0.5 µM (LIMK1; LIMK1, inhibitor at 500 nM) | remaining activity at 0.5 µM (FGFR2; FGFR2, inhibitor at 500 nM) | remaining activity at 0.5 µM (CDK2; CDK2, inhibitor at 500 nM) | other results
1 | CN[C@@H]1C[C@H]2O[C@@](C)([C@@H]1OC)n1c3ccccc3c3c4c(c5c6ccccc6n2c5c31)C(=O)NC4 [STU, staurosporine, reference compound] | 17.7% |  |  |  |  |  |  |  |  | remaining activity at 0.5 µM (PIM1): 0.6%; remaining activity at 0.5 µM (LIMK1): -0.6%
2 | COC1C(N(C)CCOc2cccc([N+](=O)[O-])c2)CC2OC1(C)n1c3ccccc3c3c4c(c5c6ccccc6n2c5c31)C(=O)NC4 (centres unmarked) [Compound 8] |  |  |  |  |  |  |  |  |  | remaining activity at 0.5 µM (MAPKAPK2): 94.6%; remaining activity at 0.5 µM (PLK1): 97.7%; remaining activity at 0.5 µM (LCK): 24%; remaining activity at 0.5 µM (BTK): 53.9%; remaining activity at 0.5 µM (PIM1): 24.6%; remaining activity at 0.5 µM (SRPK1): 78.3%; remaining activity at 0.5 µM (LIMK1): 49.9%; remaining activity at 0.5 µM (FGFR2): 31.4%; remaining activity at 0.5 µM (CDK2): 12.3%
3 | COC1C(N(C)C(=O)C(N)Cc2c[nH]cn2)CC2OC1(C)n1c3ccccc3c3c4c(c5c6ccccc6n2c5c31)C(=O)NC4 (centres unmarked) [Compound 1] | 24.4% | 73.3% | 93.8% | 2.1% | 13.9% | 2.4% | 18.8% | 9.8% | 16.5% | 
4 | COC1C(N(C)C(=O)C(N)Cc2cn(C(=O)OC(C)(C)C)c3ccccc23)CC2OC1(C)n1c3ccccc3c3c4c(c5c6ccccc6n2c5c31)C(=O)NC4 (centres unmarked) [Compound 2] | 95.7% | 106% | 97.9% | 97% | 90.6% | 88.9% | 103% | 88.4% | 76.6% | percentage of the 40 types of protein kinases inhibited [2]: 2.5%

The next lines start with results.

Row | remaining activity at 0.5 µM (SRPK1; SRPK1, inhibitor at 500 nM) | remaining activity at 0.5 µM (MAPKAPK2; MAPKAPK2, inhibitor at 500 nM) | remaining activity at 0.5 µM (PLK1; PLK1, inhibitor at 500 nM) | remaining activity at 0.5 µM (LCK; LCK, inhibitor at 500 nM) | remaining activity at 0.5 µM (BTK; BTK, inhibitor at 500 nM) | remaining activity at 0.5 µM (PIM1; PIM1, inhibitor at 500 nM) | remaining activity at 0.5 µM (LIMK1; LIMK1, inhibitor at 500 nM) | remaining activity at 0.5 µM (FGFR2; FGFR2, inhibitor at 500 nM) | remaining activity at 0.5 µM (CDK2; CDK2, inhibitor at 500 nM) | Structure (SMILES) | other results
5 | 78.5% | 92.5% | 95.9% | 14% | 55.8% | 21.8% | 56.5% | 26.5% | 8.2% | COC1C(N(C)Cc2ccc(-c3ccccc3)cc2)CC2OC1(C)n1c3ccccc3c3c4c(c5c6ccccc6n2c5c31)C(=O)NC4 (centres unmarked) [Compound 9] | 
6 | 85% | 108% | 104% | 68.8% | 65.4% | 44.2% | 66.9% | 43.2% | 57.5% | COC1C(N(C)C(=O)C(N)Cc2ccc(OC(C)(C)C)cc2)CC2OC1(C)n1c3ccccc3c3c4c(c5c6ccccc6n2c5c31)C(=O)NC4 (centres unmarked) [Compound 4] | IC50 [1]: 1600 nM; inhibitory effect on FGFR2 (FGFR2; in words): had an inhibitory effect on FGFR2; number of types of protein kinases inhibited out of 40 tested [2]: 11; percentage of the 40 types of protein kinases inhibited [2]: 27.5%
7 | 38.9% | 91.8% | 80.9% | 3% | 11.9% | 2.5% | 1.4% | 9.2% | 19.3% | COC1C(N(C)C(=O)C(N)CCC(=O)O)CC2OC1(C)n1c3ccccc3c3c4c(c5c6ccccc6n2c5c31)C(=O)NC4 (centres unmarked) [Compound 7] | 
8 | 65.3% | 105% | 104% | 44% | 43.6% | 43% | 39.5% | 26.5% | 55% | COC1C(N(C)C(=O)C(N)CCC(=O)OC(C)(C)C)CC2OC1(C)n1c3ccccc3c3c4c(c5c6ccccc6n2c5c31)C(=O)NC4 (centres unmarked) [Compound 6] | 
9 | 61.1% | 95.3% | 99.2% | 11.5% | 37.8% | 3% | 46.9% | 21.7% | 56.9% | COC1C(N(C)C(=O)C(N)Cc2ccc(O)cc2)CC2OC1(C)n1c3ccccc3c3c4c(c5c6ccccc6n2c5c31)C(=O)NC4 (centres unmarked) [Compound 5] | 
